From paper PMC10579241, “Impact of trifluoromethyl and sulfonyl groups on the biological activity of novel aryl-urea derivatives: synthesis, in-vitro, in-silico and SAR studies” (Scientific Reports, 2023)
≈ marks a conversion by molar mass, not a printed value. Where two headings read alike, the source gives them in different places. Marks after values point to notes of the source that are not given here.

Key:
[1] = tested on: normal skin fibroblast cell line (BJ1); assay: cells; format: cell-based; settings: Homo sapiens, Skin fibroblast, MTT, 48 h
in vitro = format: cell-based; settings: human, BJ1 normal skin fibroblast cells, 100 μg/mL
HCT116 [2] = assay: DNA damage, comet assay, HCT116; format: cell-based, human
[3] = tested on: hepatocellular carcinoma cell line (HePG2); assay: cells; format: cell-based; settings: Homo sapiens, 48 h
HCT116 [4] = assay: DNA fragmentation assay, HCT116; format: cell-based, human
TP53 = assay: qRT-PCR, TP53 in HCT116 cells; format: cell-based, human; settings: versus negative samples
Experimental: RNA was extracted from pancreas, prostate, lung and liver cell lines using a total RNA purification kit (Qiagen, Hilden, Germany) according to the manufacturer's instructions. An aliquot of RNA was diluted in RNase-free water to estimate RNA quantity. Aliquots were used immediately for reverse transcription (RT). cDNA synthesis was performed on extracted RNA, which was treated with DNase (Invitrogen, Germany) to remove any possible DNA contamination. The DNase-treated RNA was reverse transcribed into first-strand cDNA using the RevertAid First Strand cDNA Synthesis kit (Fermantas) according to the manufacturer's instructions. Determination of the pancreas, prostate, lung and liver cell line cDNA copy number was carried out using StepOne™ Real-Time PCR System from Applied Biosystems (Thermo Fisher Scientific, Waltham, MA USA). Gene expressions were detected by real-time PCR, which was performed using the Rotor-Gene Q system (Qiagen Company). A 25 µL reaction mixture consisted of 12.5 µL SYBR® Premix Ex TaqTM (TaKaRa, Biotech. Co. Ltd.), 0.5 µL of each primer (10 PMole) (Table 1), 1 µL cDNA (50 ng) and 10.5 µL RNase free water. The optimum amplification conditions were chosen empirically according to each tested gene. Generally, the amplification conditions include initial incubation (95.0 °C for 3 min), then 40 cycles of amplification with denaturation (95.0 °C for 15 s), annealing (55.0 °C for 30 s) and extension (72.0 °C for 30 s) steps then 71 cycles which started at 60.0 °C and then increased about 0.5 °C every 10 s up to 95.0 °C. Mean cycle threshold (Ct) values of triplicate samples are used for analysis. The Ct value indicates the fractional cycle number at which the amount of amplified target reaches a fixed threshold. Data from real-time PCR were analyzed using 2^−∆∆Ct method[38]–[40]. Data were represented as the fold change in target gene expression normalized to a House-Keeping gene (HKG) and relative to the control. β-actin was used as a HKG to normalize input RNA amount, RNA quality and reverse transcription efficiency.

Bacillus mycoides [5] = assay: microbe, parasite or virus in culture; format: cell-based
Candida albicans [6] = assay: Agar well diffusion, C. albicans; format: cell-based
[7] = tested on: osteosarcoma cell line (HOS); assay: cells; format: cell-based; settings: Homo sapiens, 48 h
Bacillus mycoides [8] = assay: microbe, parasite or virus in culture; format: cell-based; remark: listed apart in the source
Candida albicans [9] = assay: MIC by serial dilution (agar wells), C. albicans; format: cell-based
skin cancer (A431) = assay: cells; format: cell-based; settings: Homo sapiens, 48 h
Escherichia coli [10] = assay: Agar well diffusion, E. coli; format: cell-based; settings: Escherichia coli, read-out: Inhibition zones diameter
Escherichia coli [11] = assay: MIC by serial dilution (agar wells), E. coli; format: cell-based
colon cancer (HCT116) = assay: cells; format: cell-based; settings: Homo sapiens
FASN = assay: qRT-PCR, FASN in HCT116 cells; format: cell-based, human; settings: versus negative samples
[12] = read-out: Minimum inhibition concentration (MIC)
[13] = 0.00488 mg/mL, 150 µL in DMSO, 15 mm agar well
[14] = 0.00975 mg/mL, 150 µL in DMSO, 15 mm agar well
[15] = 0.0195 mg/mL, 150 µL in DMSO, 15 mm agar well
[16] = 0.0391 mg/mL, 150 µL in DMSO, 15 mm agar well
[17] = 0.0781 mg/mL, 150 µL in DMSO, 15 mm agar well
[18] = 0.1563 mg/mL, 150 µL in DMSO, 15 mm agar well
[19] = 0.3125 mg/mL, 150 µL in DMSO, 15 mm agar well
[20] = 0.625 mg/mL, 150 µL in DMSO, 15 mm agar well
[21] = 1.25 mg/mL, 150 µL in DMSO, 15 mm agar well
[22] = 2.50 mg/mL, 150 µL in DMSO, 15 mm agar well
[23] = 5.00 mg/mL, 150 µL in DMSO, 15 mm agar well
[24] = 10.0 mg/mL, 150 µL in DMSO, 15 mm agar well

## Cc1ccc(S(=O)(=O)NC(=O)Nc2cc(C(F)(F)F)cc(C(F)(F)F)c2)cc1 [Compound 9, N-[(3,5-bis{Trifluoromethyl}phenyl)carbamoyl]-4-methylbenzenesulfonamide]
[1]
  IC50: 52.5 ± 0.74 µM
In vitro
  mortality at 48 h, 100 µg/mL: 28 ± 0.61%
HCT116 [2]
  DNA damaged cells % (mean ± SEM): 19.75 ± 1.25^b %
HCT116 [2]; of 400 cells analyzed
  Class 0 (no tail), number of cells: 321
  Class 1 (tail length < diameter of nucleus), number of cells: 37
  Class 2 (tail length between 1 and 2 × the diameter of nucleus), number of cells: 24
  Class 3 (tail length > 2 × the diameter of nucleus), number of cells: 18
  No. of cells, Comets: 79
[3]; 100 μg/mL
  mortality at 100 µg/mL: 100%
[3]; MTT
  IC50: 12.4 ± 0.17 µM
HCT116 [4]
  Change (DNA fragmentation versus untreated cells): 18.10
HCT116 [4]; IC50 concentration, 24 h
  DNA fragmentation % M ± SEM: 29.0 ± 0.54^a %
HCT116 [4]; doxorubicin = 0.00
  Inhibition: -13.81
TP53
  TP53 gene expression level: suppression
Bacillus mycoides [5]; read-out: Inhibition zone
  zone of inhibition at 4.88 µg/mL: 0 mm
  zone of inhibition at 9.75 µg/mL: 0 mm
  zone of inhibition at 19.5 µg/mL: 16 mm
  zone of inhibition at 39.1 µg/mL: 17 mm
  zone of inhibition at 78.1 µg/mL: 21 mm
  zone of inhibition at 156.3 µg/mL: 25 mm
  zone of inhibition at 312.5 µg/mL: 28 mm
  zone of inhibition at 625 µg/mL: 29 mm
  zone of inhibition at 1250 µg/mL: 30 mm
  zone of inhibition at 2500 µg/mL: 32 mm
  zone of inhibition at 5000 µg/mL: 33 mm
  zone of inhibition at 10000 µg/mL: 33 mm
Bacillus mycoides [5]; [12]
  MIC: 19.5 µg/mL (≈ 45.7 µM)
Candida albicans [6]; C. albicans, 200 μL of 10 mg/mL in DMSO in 15 mm holes, overnight 37 °C
  Inhibition zones diameter: 41 ± 0.21 mm
Candida albicans [6]; Candida albicans, read-out: Inhibition zones diameter
  zone of inhibition at 10000 µg/mL: 41 mm
[7]; 100 μg/mL
  mortality at 100 µg/mL: 100%
[7]; MTT
  IC50: 17.6 ± 0.24 µM
Bacillus mycoides [8]; B. mycoides, 200 μL of 10 mg/mL in DMSO in 15 mm holes, overnight 37 °C
  Inhibition zones diameter: 41 ± 0.0 mm
Bacillus mycoides [8]; Bacillus mycoides, read-out: Inhibition zones diameter
  zone of inhibition at 10000 µg/mL: 41 mm
Candida albicans [9]; [13]
  zone of inhibition at 4.88 µg/mL: 0 mm
Candida albicans [9]; [14]
  zone of inhibition at 9.75 µg/mL: 0 mm
Candida albicans [9]; [15]
  zone of inhibition at 19.5 µg/mL: 0 mm
Candida albicans [9]; [16]
  zone of inhibition at 39.1 µg/mL: 16 mm
Candida albicans [9]; [17]
  zone of inhibition at 78.1 µg/mL: 20 mm
Candida albicans [9]; [18]
  zone of inhibition at 156.3 µg/mL: 23 mm
Candida albicans [9]; [19]
  zone of inhibition at 312.5 µg/mL: 25 mm
Candida albicans [9]; [20]
  zone of inhibition at 625 µg/mL: 28 mm
Candida albicans [9]; [21]
  zone of inhibition at 1250 µg/mL: 32 mm
Candida albicans [9]; [22]
  zone of inhibition at 2500 µg/mL: 34 mm
Candida albicans [9]; [23]
  zone of inhibition at 5000 µg/mL: 35 mm
Candida albicans [9]; [24]
  zone of inhibition at 10000 µg/mL: 36 mm
Candida albicans [9]; [12]
  MIC: 39.1 µg/mL (≈ 91.7 µM)
Skin cancer (A431); A-431, 100 μg/mL
  mortality at 100 µg/mL: 100%
Skin cancer (A431); A-431, MTT
  IC50: 113.3 ± 0.68 µM
Escherichia coli [10]
  zone of inhibition at 10000 µg/mL: 37 ± 0.74 mm
Escherichia coli [11]; [13]
  zone of inhibition at 4.88 µg/mL: 0 mm
Escherichia coli [11]; [14]
  zone of inhibition at 9.75 µg/mL: 0 mm
Escherichia coli [11]; [15]
  zone of inhibition at 19.5 µg/mL: 0 mm
Escherichia coli [11]; [16]
  zone of inhibition at 39.1 µg/mL: 0 mm
Escherichia coli [11]; [17]
  zone of inhibition at 78.1 µg/mL: 16 mm
Escherichia coli [11]; [18]
  zone of inhibition at 156.3 µg/mL: 20 mm
Escherichia coli [11]; [19]
  zone of inhibition at 312.5 µg/mL: 25 mm
Escherichia coli [11]; [20]
  zone of inhibition at 625 µg/mL: 30 mm
Escherichia coli [11]; [21]
  zone of inhibition at 1250 µg/mL: 32 mm
Escherichia coli [11]; [22]
  zone of inhibition at 2500 µg/mL: 33 mm
Escherichia coli [11]; [23]
  zone of inhibition at 5000 µg/mL: 34 mm
Escherichia coli [11]; [24]
  zone of inhibition at 10000 µg/mL: 35 mm
Escherichia coli [11]; [12]
  MIC: 78.1 µg/mL (≈ 183 µM)
Colon cancer (HCT116); HCT-116, 48 h, 100 μg/mL
  mortality at 100 µg/mL: 100%
Colon cancer (HCT116); HCT-116, MTT, 48 h
  IC50: 17.8 ± 0.35 µM
FASN
  FASN gene expression level: suppression
